Where two headings read alike, the source gives them in different places. Square brackets hold non-standard residues; d marks the D form. Peptide text beside a SMILES is read from it. d(hArg(Et2)) = CCN=C(NCC)NCCCC[C@@H](N)C(=O)O; hArg(Et2) = CCN=C(NCC)NCCCC[C@H](N)C(=O)O; dPhe(4-Cl) = N[C@H](Cc1ccc(Cl)cc1)C(=O)O; d2Nal = N[C@H](Cc1ccc2ccccc2c1)C(=O)O; dCit = NC(=O)NCCC[C@@H](N)C(=O)O; d3Pal = N[C@H](Cc1cccnc1)C(=O)O
Columns and labels:
GnRH receptor (GnRHR) [1] = target: T1, GnRH receptor (GnRHR) (Homo sapiens, UniProt P30968); assay: BRET (CAMYEL) measurement of cAMP accumulation in HEK293/GnRHR cells; type: cell-based; parameters: HA (hemagglutinin); expressed in transfected cells; host or cells: HEK293 (transient co-transfection with BRET biosensor)
T1 sequence (P30968 1-328): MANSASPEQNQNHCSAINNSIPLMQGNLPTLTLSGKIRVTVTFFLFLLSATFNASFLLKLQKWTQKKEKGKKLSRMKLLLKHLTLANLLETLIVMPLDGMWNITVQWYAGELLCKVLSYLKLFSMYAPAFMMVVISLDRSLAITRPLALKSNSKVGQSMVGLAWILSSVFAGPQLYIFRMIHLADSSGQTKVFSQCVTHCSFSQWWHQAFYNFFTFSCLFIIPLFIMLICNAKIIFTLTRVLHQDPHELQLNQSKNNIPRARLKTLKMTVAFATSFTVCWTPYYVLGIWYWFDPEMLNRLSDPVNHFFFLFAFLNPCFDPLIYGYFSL
Method: Different transfection protocols were followed, depending on the endpoint to be measured. For BRET experiments, 3 × 10^4 cells were transiently transfected using vectors expressing the cAMP-CAMYEL or the aequorin-Ca^2+ BRET biosensor-encoding cDNA [59], as appropriate, together with the GnRHR-HA-encoding vector. Transfections were performed in a 96-well plate using the Metafectene PRO reagent (Biontex, München, Germany), as previously described. […]
cAMP accumulation was measured in cells transiently expressing both the BRET-based cAMP biosensor CAMYEL [64] and GnRHR. […] BRET signals were detected at 475 and 535 nm wavelengths upon the addition of 5 µM Coelenterazine H (NanoLight Technologies). […]
(§1) BRET experiments were performed using a CLARIOstar plate reader equipped by a monocromator (BMG Labtech, Ortenberg, Germany), as previously described.
Data were plotted on graphs as means ± standard error of means (SEM). […] Data distributions were analyzed by D’Agostino and Pearson normality tests and inhibition of intracellular Ca^2+ increase by different concentrations of antagonist were compared using two-way analysis of variance (ANOVA), followed by Bonferroni post-test or Kruskal-Wallis and proper post-test. cAMP accumulation was represented as acceptor:donor emission ratio (induced BRET changes) after basal subtraction (untreated cells). […]

GnRH receptor (GnRHR) [2] = target: T1, GnRH receptor (GnRHR); assay: BRET measurement of GnRH-induced intracellular Ca2+ increase in SH-SY5Y/GnRHR cells; type: cell-based; parameters: HA (hemagglutinin); expressed in transfected cells; details: means±SEM, n=6
Method: (§2) Different transfection protocols were followed, depending on the endpoint to be measured. For BRET experiments, 3 × 10^4 cells were transiently transfected using vectors expressing the cAMP-CAMYEL or the aequorin-Ca^2+ BRET biosensor-encoding cDNA [59], as appropriate, together with the GnRHR-HA-encoding vector. Transfections were performed in a 96-well plate using the Metafectene PRO reagent (Biontex, München, Germany), as previously described. 100 ng of the receptor-encoding vector + 100 ng of the BRET biosensor-encoding vector were used for co-transfecting HEK293 cells, while SH-SY5Y cells were co-transfected using 200 ng of the receptor-encoding vector + 100 ng of the BRET biosensor-encoding vector. 200 ng of the aequorin-Ca^2+ BRET biosensor-encoding cDNA were used for transfecting LβT2 cells. Each sample was prepared in duplicate, cultured for 48 h and serum-starved over-night before experiments.
(§3) To evaluate Ca^2+ increase, cells were incubated in Hank’s Balanced Salt Solution (HBSS) with Ca^2+ and Mg^2+, 1 mM Hepes and 5 µM Coelenterazine H (NanoLight Technologies, a division of Prolume, Ltd., Pinetop, AZ, USA), for 45 minutes, together with Cetrorelix, Ganirelix, Teverelix or vehicle, as appropriate. […] The EC50 was extrapolated from the curve obtained from each cell line. Cells treated by 5 µM of the sarco/endoplasmic reticulum Ca^2+ ATPase enzyme inhibitor, thapsigargin (Tocris Bioscience), served as positive control. Treatment by the vehicle (HBSS) was the negative control and used as a normalizer.
as §1
(§4) Data were plotted on graphs as means ± standard error of means (SEM). The kinetics of intracellular Ca^2+ increase was represented by the BRET biosensor emission after background subtraction (vehicle). […] Data distributions were analyzed by D’Agostino and Pearson normality tests and inhibition of intracellular Ca^2+ increase by different concentrations of antagonist were compared using two-way analysis of variance (ANOVA), followed by Bonferroni post-test or Kruskal-Wallis and proper post-test. cAMP accumulation was represented as acceptor:donor emission ratio (induced BRET changes) after basal subtraction (untreated cells). Dose-response curves were obtained by data interpolation using non-linear regressions and normalized as percentage of the maximal response. EC50s, as well as half-maximal inhibitory concentrations (IC50), were compared by t-test or Mann–Whitney U test, while results obtained by Western blotting and qRT-PCR data were compared by one-way ANOVA followed by Bonferroni post-test. Statistical differences were considered as significant for p < 0.05. These analyses were performed using the GraphPad Prism software (GraphPad Software Inc., San Diego, CA, USA).

GnRH receptor (GnRHR) [3] = target: T1, GnRH receptor (GnRHR); assay: BRET measurement of GnRH-induced intracellular Ca2+ increase in HEK293/GnRHR cells; type: cell-based; parameters: HA (hemagglutinin); expressed in transfected cells; host or cells: HEK293 (transient co-transfection with BRET biosensor); details: means ± SEM, n = 6
Method: as §2, §3, §1, §4

Lhb gene expression = Lhb gene expression by qRT-PCR in LβT2 cells; type: cell-based, mouse; details: 1 µM GnRH + 1 µM antagonist, 24 h, n = 4
Method: LβT2 cells were seeded in 24-well plates (2 × 10^5 cells/well) and cultured for 24 h in DMEM supplemented with 10% Charcoal Stripped FBS, 4.5 g/L glucose, 100 IU/mL penicillin, 0.1 mg/mL streptomycin, and 1 mM glutamine (all from Sigma-Aldrich) before treatments. […] Samples were lysed for RNA extraction using TRIzolTM Reagent (Invitrogen) and equal amounts of total RNA were used for cDNA synthesis performed using the iScript reverse transcriptase (BioRad), as previously described. qRT-PCR was carried out in triplicates on the CFX96TM Real-Time PCR Detection System (BioRad) using the following primers pairs: [NT] for mouse Lhb; [NT] for mouse Gapdh. Primer sequences were drawn using the Mus musculus Lhb (NCBI Reference Sequence: NM_008497.2) and Gapdh (NM_008084.3) mRNAs as templates. Gene expression of Lhb was normalized to mouse Gapdh gene expression using the 2^-ΔΔCt method.

[4] = 3xEC50 GnRH + 100 pM antagonist
[5] = 3xEC50 GnRH + 100 nM antagonist
[6] = 3 × EC50 GnRH + 1 pM antagonist
[7] = 3 × EC50 GnRH + 10 pM antagonist
[8] = 3 × EC50 GnRH + 100 pM antagonist
[9] = 3 × EC50 GnRH + 1 nM antagonist
[10] = 3 × EC50 GnRH + 75 nM antagonist
[11] = 3 × EC50 GnRH + 100 nM antagonist
[12] = 3 × EC50 GnRH + 1 µM antagonist

Row | SMILES | IC50 (GnRH receptor (GnRHR) [1]) [nM] | AUC of the kinetics of intracellular Ca2+ response (GnRH receptor (GnRHR) [2]; 3xEC50 GnRH + 1 pM antagonist) | AUC of the kinetics of intracellular Ca2+ response (GnRH receptor (GnRHR) [2]; 3xEC50 GnRH + 10 pM antagonist) | AUC of the kinetics of intracellular Ca2+ response (GnRH receptor (GnRHR) [2]; [4]) | AUC of the kinetics of intracellular Ca2+ response (GnRH receptor (GnRHR) [2]; 3xEC50 GnRH + 1 nM antagonist) | AUC of the kinetics of intracellular Ca2+ response (GnRH receptor (GnRHR) [2]; 3xEC50 GnRH + 10 nM antagonist) | AUC of the kinetics of intracellular Ca2+ response (GnRH receptor (GnRHR) [2]; 3xEC50 GnRH + 20 nM antagonist) | AUC of the kinetics of intracellular Ca2+ response (GnRH receptor (GnRHR) [2]; [5]) | AUC of the kinetics of intracellular Ca2+ response (GnRH receptor (GnRHR) [2]; 3xEC50 GnRH + 1 uM antagonist) | AUC of the kinetics of intracellular Ca2+ response (GnRH receptor (GnRHR) [3]; [6]) | AUC of the kinetics of intracellular Ca2+ response (GnRH receptor (GnRHR) [3]; [7]) | AUC of the kinetics of intracellular Ca2+ response (GnRH receptor (GnRHR) [3]; [8]) | AUC of the kinetics of intracellular Ca2+ response (GnRH receptor (GnRHR) [3]; [9]) | AUC of the kinetics of intracellular Ca2+ response (GnRH receptor (GnRHR) [3]; [10]) | AUC of the kinetics of intracellular Ca2+ response (GnRH receptor (GnRHR) [3]; [11]) | AUC of the kinetics of intracellular Ca2+ response (GnRH receptor (GnRHR) [3]; [12]) | effect on GnRH-induced Lhb gene expression (Lhb gene expression) | IC50 (GnRH receptor (GnRHR) [1]; read-out: IC50 of inhibition of GnRH-induced cAMP accumulation) [nM] | AUC of the kinetics of intracellular Ca2+ response (GnRH receptor (GnRHR) [3]; 3 × EC50 GnRH + 10 nM antagonist)
1 | CC(=O)N[C@H](Cc1ccc2ccccc2c1)C(=O)N[C@H](Cc1ccc(Cl)cc1)C(=O)N[C@H](Cc1cccnc1)C(=O)N[C@@H](CO)C(=O)N[C@@H](Cc1ccc(O)cc1)C(=O)N[C@H](CCCNC(N)=O)C(=O)N[C@@H](CC(C)C)C(=O)N[C@@H](CCCNC(=N)N)C(=O)N1CCC[C@H]1C(=O)N[C@H](C)C(N)=O [Cetrorelix] (Ac-[d2Nal][dPhe(4-Cl)][d3Pal]SY[dCit]LRP[dA]-NH2) | 0.84 | 105586±22643 | 103653±11947 | 118914±31558 | 81413±26479 | 81282±26769 | 58382±8030 | 46414±15714 | 13355±4381 | 78,113 ± 29,979 | 124,981 ± 33,684 | 126,243 ± 34,982 | 71,127 ± 25,268 | 18,632 ± 4423 | 8946 ± 3296 | 3264 ± 3024 | inhibited |  | 
2 | CCN=C(NCC)NCCCC[C@H](NC(=O)[C@H](CC(C)C)NC(=O)[C@@H](CCCCNC(=NCC)NCC)NC(=O)[C@H](Cc1ccc(O)cc1)NC(=O)[C@H](CO)NC(=O)[C@@H](Cc1cccnc1)NC(=O)[C@@H](Cc1ccc(Cl)cc1)NC(=O)[C@@H](Cc1ccc2ccccc2c1)NC(C)=O)C(=O)N1CCC[C@H]1C(=O)N[C@H](C)C(N)=O [Ganirelix] (Ac-[d2Nal][dPhe(4-Cl)][d3Pal]SY[d(hArg(Et2))]L[hArg(Et2)]P[dA]-NH2; N-terminus and C-terminus assumed) |  | 93877±14161 | 113983±12281 | 116076±24125 | 75460±15613 | 83904±19566 | 52343±8665 | 82720±17902 | 6523±3056 | 76,189 ± 18,564 | 91,896 ± 21,766 | 101,943 ± 27,388 | 66,665 ± 16,035 | 43,870 ± 4193 | 34,734 ± 13,731 | 3346 ± 2977 | inhibited | 0.61 | 73,164 ± 16,237
